Measured values as given in patent publication US12433870B2, “Supramolecular photoprotection of a photosensitizer” (Northwestern University, priority 2019, dated 2025).
Entries after “also recorded” stand apart in the source; their conditions may differ.

How the values were obtained:
ExBox^4+ and DPP = assay: 1H NMR titration, host-guest association constant (1:1 binding model); conditions: 1H NMR titration in (CD3)2CO, 298 K
Method: The synthesis of ExBox•4Cl was carried out following our previously reported procedure^17. Solid DPP (0.46 mg, […]) was dissolved in Me2CO (1 mM, 1 mL) and added to a solution of ExBox•4Cl in H2O (1.0 mM, 1 mL). The mixture was sonicated for 15 min, Me2CO was removed in vacuum, and the H2O portion was passed through a 0.45-μm filter to yield 1:1 ExBox^4+⊃DPP complex (FIG. 1A) in water. Upon complex formation, the aqueous solution color changed to light orange-pink or tangerine. […] The resonances for the α and CH2 protons of ExBox^4+ were affected only slightly by the shielding effect of DPP as they are located at the corners and display only slight shifts in their […] spectra. This pattern is in excellent agreement with the inclusion of DPP inside ExBox^4+ in solution. […] The association constant (Ka) obtained from 1:1 binding model was calculated to be 12600±300 M^−1 from the chemical shifts of […] titrations experiments (FIG. 1B-1C) between ExBox^4+ and DPP in (CD3)2CO.
The ^1H NMR (298 K, 500 MHz) titration was performed by adding small volumes of a solution of DPP in Me2CO-d6 to a solution of ExBox•4PF6 in Me2CO-d6. […]
(CD3)2CO stock solutions of ExBox^4+ (0.4 mM) and DPP (5.4 mM) were prepared. […] The NMR spectra were recorded after each addition of DPP solution. […]

[1] = Detection of singlet oxygen (ADPA chemical method, methylene blue reference); type: physicochemical; conditions: H2O, 20 μM, 630 nm, 50 mW, 20 min
Method: Singlet oxygen (^1O2) quantum-yield measurements were conducted by a chemical method. The disodium salt of 9.10-anthracenedipropionic acid (ADPA) was used as singlet oxygen detection reagent with methylene blue used as a reference (Φt=0.53). In this experiment, ADPA (0.1 μmol) was added to the H2O solution of ExBox^4+⊃DPP (20 μM) with a laser irradiation (630 nm, 50 mW) for 20 min, followed by quantification of ^1O2 by the absorbance intensity change (UV-3600 Shimadzu spectrophotometer) at 380 nm of ADPA. The calculation of ^1O2 quantum yield is based on the equality ΦΔ=(ΔAs/[…])Φr. ΔAs is the absorption change of detected photosensitizer, ΔAr is the absorption change of referenced photosensitizer and Φ^r is the quantum yield of singlet oxygen of referenced photosensitizer (methylene blue).
(§1) ADPA (0.1 μmol) was added to the H2O solution of DPPH2^+ (20 μM) with a laser irradiation (630 nm, 50 mW) for 20 min, followed by quantification of the ^1O2 by the absorbance intensity change (UV-3600 Shimadzu spectrophotometer) at 380 nm of ADPA. The calculation of the ^1O2 quantum yield is based on the equality ΦΔ=(ΔAs/ΔAr)Φr where ΔAs is the absorption change of detected photosensitizer, ΔAr is the absorption change of referenced photosensitizer and Φr is the quantum yield of singlet oxygen of referenced photosensitizer (methylene blue). Measured ^1O2 quantum yield of DPPH2^2+ is 0.38 in H2O.
as §1, with “acetone” for “H2O”, “DPP” for “DPPH2^+”, “DPP” for “DPPH2^2+”, “0.43” for “0.38”, “acetone.” for “H2O.”

A2780 cells [2] = assay: Live cell confocal microscopy, cellular uptake and co-localization; type: cell-based, human
Method: (§2) A2780 cells (1×10^5 cells/mL, 300 μL) were plated in each well of an 8-well μ-slide (ibidi cell focus) and cultured overnight. PBS solution of ExBox^4+⊃DPP was added to each well and incubated for predetermined time points. For cellular co-localization studies, cells were washed with phenol free DMEM and stained with LysoTracker green (lysosome stain, 1:1000 dilution) or MitoSpy™ Green FM (mitochondria stain, 1:2000 dilution) or NucBlue™ Live ReadyProbes™ Reagent (nuclei stain, 1 drop). For the live-dead assay, cells were incubated with PBS solution of ExBox^4+⊃DPP irradiated for 10 min at […] light intensity, incubated overnight, and stained with Calcein AM (2 μM) and Ethidium homodimer-1 (4 μM). Plated cells were imaged within a humidified chamber using a 63× oil-immersion objective on a SP5 Leica Confocal Microscope using HyD detectors and lasers.

A2780 cells [3] = assay: Calcein-AM/Ethidium homodimer-1 live-dead assay; type: cell-based, human; conditions: 10 μM
Method: as §2

SMILES: C1=Cc2nc1cc1ccc([nH]1)c(-c1ccccc1)c1nc(cc3ccc([nH]3)c2-c2ccccc2)C=C1.c1cc2ccc1C[n+]1ccc(cc1)-c1ccc(cc1)-c1cc[n+](cc1)Cc1ccc(cc1)C[n+]1ccc(cc1)-c1ccc(cc1)-c1cc[n+](cc1)C2 [ExBox^4+⊃DPP]
- association constant (Ka) (ExBox^4+ and DPP): 12600 ± 300 M⁻¹
- singlet oxygen generation upon photoexcitation [1]: did not generate any singlet oxygen; also recorded: ^1O2 was not generated
- cell injury under continuous irradiation (real-time confocal) (A2780 cells [2]; 5 min continuous irradiation, 25 mW): showed blebs on their surface
- lysosomal co-localization (lysotracker) (A2780 cells [2]; 1 h incubation): no lysosomal co-localization
- mitochondrial internalization (mitospy) (A2780 cells [2]; 12 h incubation, 10 μM): no mitochondrial internalization
- lysosomal co-localization (lysotracker) (A2780 cells [2]; incubation time up to 12 h): co-localization of DPP with the green fluorescence of lysotracker was detected
- lowest concentration traceable as punctate inside cells (A2780 cells [2]; red laser excitation, 12 h incubation): 0.1
- live-dead staining (A2780 cells [3]; 0.156 J cm^−2 light dose for 10 min): red fluorescence
- live-dead staining (A2780 cells [3]; dark conditions): bright green fluorescence
